# Experimental data from US6599713B1, “Method for quantitating leukocyte count in whole blood sample” (priority 1999, dated 2003).
# Experiments:
# [1] = test system: white blood cells contained in a whole blood sample; experiment: MPO-releasing effects of various surfactants on whole blood, ELISA (Examples 3 to 5); format: cell-based, human; conditions: 60 minutes on ice
# Method: 10 ml of healthy human whole blood was collected using a 28 G winged intravenous injection needle (manufactured and sold by Terumo Corporation, Japan), and immediately mixed with 10 mg of EDTA-2K (manufactured and sold by Dojin Laboratories, Japan), and the resultant EDTA-containing whole blood sample was subjected to the below-described various measurements within 1 hour from the blood collection.
# 500 μl of the blood was put in a 2-ml Eppendorf tube, and 500 μl of a 1% (w/v) aqueous surfactant solution was added to the tube, and the resultant mixture was stirred for 2 seconds by a Vortex mixer. Subsequently, the mixture was allowed to stand for 60 minutes on ice to thereby lyze the white blood cells. After the lysis of the white blood cells, 100 μl of the mixture was taken out and added to 900 μl of a PBS solution containing dissolved therein 1% BSA (trade name: “Sigma fraction V”, manufactured and sold under the brand of SIGMA™, U.S.A.). The resultant mixture was stirred by a Vortex mixer, and then 10 μl of the mixture was taken out and diluted 2,000-fold with 1% BSA/PBS solution. The resultant diluted mixture was subjected to a measurement by ELISA.
# The outline of the ELISA is as follows. A 5 μg/ml PBS solution of an anti-MPO antibody was put into the wells of a Nunc Immuno Plate (manufactured and sold by Nalge Nunc International, Denmark) in an amount of 100 μl per well. The solution in each well was sealed and subjected to a reaction for 18 hours at 4° C. thereby immobilizing the primary antibody. The wells were washed with a washing solution (0.05% Tween™ 20/PBS) and then subjected to blocking for 1 hour at room temperature by using 200 μl of a blocking solution (1% BSA/PBS), and then washed twice with the washing solution. […] The wells were washed 5 times with a washing solution, and 100 μl of a just-prepared TMB solution (manufactured and sold by Kirkegaad & Perry Laboratories, U.S.A.) was added thereto to effect a color reaction. 2 Minutes after the start of the color reaction, 100 μl of a 1 N sulfuric acid solution (manufactured and sold by Nacalai Tesque, Inc., Japan) was added to the wells to thereby terminate the reaction. Then, the absorbance at 450 nm was measured by means of a plate reader (manufactured and sold by Bio-Rad Laboratories, U.S.A.).
# With respect to the measurement of the MPO concentration of the sample, MPO (manufactured and sold by Elastin Products Co., INC., U.S.A.) was added to the sample so that the final concentration of the added MPO became 5 ng/ml or 10 ng/ml, and the resultant mixture was measured with respect to the MPO concentration. From the obtained value of MPO concentration, a calibration curve for each sample was obtained. The obtained calibration curve was corrected, based on its relationship with a calibration curve obtained with respect to a standard MPO solution, and the corrected calibration curve of each sample was used to determine the MPO concentration of the whole blood. The measurement was conducted 3 times, and a mean value±standard deviation was obtained.
# [2] = test system: white blood cells contained in the whole blood; experiment: Concentration of surfactant and release amount of MPO in whole blood, ELISA (Example 2); format: cell-based, human; conditions: 60 minutes on ice, mean ± SD of 3
# Method: 10 ml of healthy human whole blood was collected and immediately mixed with 10 mg of EDTA-2K (manufactured and sold by Dojin Laboratories, Japan), and the resultant EDTA-containing whole blood sample was subjected to the below-described various measurements within 1 hour from the blood collection.
# 500 μl of the blood was put in a 2-ml Eppendorf tube, and 500 μl of an aqueous surfactant solution having a surfactant concentration of 0.1, 0.2, 0.4, 0.6, 1, 2, 4, 10 or 20% (w/v) was added to the tube, and the resultant mixture was stirred for 2 seconds by a Vortex mixer. Subsequently, the mixture was allowed to stand for 60 minutes on ice to thereby lyze the white blood cells. […] After the lysis of the white blood cells, 100 μl of the mixture was taken out and added to 900 μl of a PBS solution containing dissolved therein 1% BSA (trade name: “Sigma fraction V”, manufactured and sold under the brand of SIGMA™, U.S.A.). The resultant mixture was stirred by a Vortex mixer, and then 10 μl of the mixture was taken out and diluted 2,000-fold with 1% BSA/PBS solution. The resultant diluted mixture was subjected to a measurement by ELISA.
# The outline of the ELISA is as follows. A 5 μg/ml PBS solution of a rabbit anti-human myeloperoxidase antibody (manufactured and sold by Calbiochem-Novabiochem Corporation, U.S.A.)(hereinafter, frequently referred to as “anti-MPO antibody”) was put into the wells of a Nunc Immuno Plate (manufactured and sold by Nalge Nunc International, Denmark) in an amount of 100 μl per well. The solution in each well was sealed and subjected to a reaction for 18 hours at 4° C. thereby immobilizing the primary antibody. The wells were washed with a washing solution (0.05% Tween™ 20/PBS) and then subjected to blocking for 1 hour at room temperature by using 200 μl of a blocking solution (1% BSA/PBS), and then washed twice with the washing solution. Then, the above-obtained diluted mixture (blood sample which had been treated with a surfactant and then diluted) was put in the wells in an amount of 100 μl per well, and subjected to a reaction for 2 hours at room temperature. Then, the wells were washed 3 times with the washing solution, and a 5 μg/ml solution of an anti-MPO antibody labeled with horseradish peroxidase (hereinafter referred to as “HRP”) was put in the wells in an amount of 100 μl per well, and subjected to a reaction for 1 hour at room temperature. As the above-mentioned HRP-labeled anti-MPO antibody, an anti-human MPO antibody (manufactured and sold by Calbiochem-Novabiochem Corporation, U.S.A.) which had been labeled with HRP Grade IV (manufactured and sold under the brand of SIGMA™, U.S.A.) was employed. The labeling was performed by the method described in Analytical Biochemistry, 132, 68-73 (1983). The wells were washed 5 times with the washing solution, and 100 1 μl of a just-prepared TMB solution (manufactured and sold by Kirkegaad & Perry Laboratories, U.S.A.) was added thereto to effect a color reaction. 2 Minutes after the start of the color reaction, 100 μl of a 1 N sulfuric acid solution (manufactured and sold by Nacalai Tesque, Inc., Japan) was added to the wells to thereby terminate the reaction. Then, the absorbance at 450 nm was measured by means of a plate reader (manufactured and sold by Bio-Rad Laboratories, U.S.A.). The measurement was conducted 3 times, and a mean value±standard deviation was obtained.
# [3] = test system: white blood cells in whole blood; conditions: nonionic surfactants, dependence on HLB value
# Method: Blood collection, treatment with a surfactant, and ELISA were performed in the same manner as in Example 3 in order to measure the MPO-releasing effects of the below-mentioned various surfactants.
# These surfactants were individually dissolved in purified water (manufactured and sold by Kyoei Seiyaku Co., Japan) so as to obtain 10% or 2% (w/v) aqueous solutions. Before use in the testing, each of the aqueous solutions was further diluted to obtain a 1% (w/v) aqueous solution, and the 1% (w/v) aqueous solution was used in the testing within 15 hours from the preparation thereof. As a control, purified water (manufactured and sold by Kyoei Seiyaku Co., Japan) was used.
# [4] = Example 5 (Table 5): 500 μl blood + 500 μl 1% (w/v) surfactant solution, mean ± SD
# [5] = Example 3 (Table 3): 500 μl blood + 500 μl 1% (w/v) surfactant solution, mean ± SD of 3
# [6] = Example 4 (Table 4): 500 μl blood + 500 μl 1% (w/v) surfactant solution, mean ± SD
# [7] = concentration of surfactant 0.05 % (w/v)
# [8] = concentration of surfactant 0.10 % (w/v)
# [9] = concentration of surfactant 0.20 % (w/v)
# [10] = concentration of surfactant 0.30 % (w/v)
# [11] = concentration of surfactant 0.50 % (w/v)
# [12] = concentration of surfactant 1.00 % (w/v)
# [13] = concentration of surfactant 2.00 % (w/v)
# [14] = concentration of surfactant 5.00 % (w/v)
# [15] = concentration of surfactant 10.00 % (w/v)
compound,measurement,setting,value
"CCCCCCCCCCCC[N+](C)(C)C.[Br-] [DTAB, n-Dodecyltrimethylammonium Bromide]",MPO concentration of whole blood,[1]; [4],8.05 ± 0.64 µg/mL
"CCCCCCCCCCCCCCCC[N+](C)(C)C.[Br-] [HTAB, Hexadecyltrimethylammonium Bromide]",MPO concentration of whole blood,[1]; [5],5.80 ± 1.41 µg/mL
same,MPO concentration of whole blood,[1]; [6],9.58 ± 0.53 µg/mL
same,MPO concentration of whole blood,[1]; [4],7.15 ± 2.69 µg/mL
"CCCCCCCCCCCCCCCC[N+](C)(C)C.[Cl-] [HTAC, Hexadecyltrimethylammonium Chloride]",MPO concentration of whole blood,[1]; [6],10.93 ± 0.82 µg/mL
same,MPO concentration of whole blood,[1]; [4],7.35 ± 0.28 µg/mL
"CCCCCCCCCCCC[n+]1ccccc1.[Cl-] [LPC, 1-Laurylpyridinium Chloride]",MPO concentration of whole blood,[1]; [6],9.58 ± 1.39 µg/mL
same,MPO concentration of whole blood,[1]; [4],7.57 ± 0.60 µg/mL
"CCCCCCCCCCCCCCCCCC[N+](C)(C)C.[Cl-] [OTAC, Octadecyltrimethylammonium Chloride]",MPO concentration of whole blood,[1]; [4],7.47 ± 0.38 µg/mL
"CCCCCCCCCCCCCC[N+](C)(C)C.[Br-] [TTAB, Tetradecyltrimethylammonium Bromide]",MPO concentration of whole blood,[1]; [6],9.33 ± 1.30 µg/mL
same,MPO concentration of whole blood,[1]; [4],8.08 ± 0.11 µg/mL
"α-(4-Nonylphenyl)-ω-hydroxypoly(oxy-1,2-ethanediyl) [Nissan Nonion NS-208.5]",MPO concentration of whole blood,[1]; [5],6.20 ± 1.51 µg/mL
"α-[4-(1,1,3,3,-Tetramethylbutyl)phenyl]-ω-hydroxypoly(oxy-1,2-ethanediyl) [Igepal ™ CA630]",MPO concentration of whole blood,[1]; [5],6.23 ± 1.42 µg/mL
same,Release amount of MPO in whole blood,[2]; [7],0.103 ± 0.005 Abs. 450 nm
same,Release amount of MPO in whole blood,[2]; [8],0.156 ± 0.009 Abs. 450 nm
same,Release amount of MPO in whole blood,[2]; [9],0.205 ± 0.007 Abs. 450 nm
same,Release amount of MPO in whole blood,[2]; [10],0.211 ± 0.008 Abs. 450 nm
same,Release amount of MPO in whole blood,[2]; [11],0.249 ± 0.002 Abs. 450 nm
same,Release amount of MPO in whole blood,[2]; [12],0.220 ± 0.008 Abs. 450 nm
same,Release amount of MPO in whole blood,[2]; [13],0.208 ± 0.003 Abs. 450 nm
same,Release amount of MPO in whole blood,[2]; [14],0.199 ± 0.018 Abs. 450 nm
same,Release amount of MPO in whole blood,[2]; [15],0.227 ± 0.006 Abs. 450 nm
"α-[4-(1,1,3,3,-Tetramethylbutyl)phenyl]-ω-hydroxypoly(oxy-1,2-ethanediyl) [Triton ™ X-114]",MPO concentration of whole blood,[1]; [5],7.44 ± 1.81 µg/mL
same,Efficiency for releasing intrinsic MPO from the white blood cells (in words),[3],high activity to release intrinsic MPO
same,Release amount of MPO in whole blood,[2]; [7],0.120 ± 0.026 Abs. 450 nm
same,Release amount of MPO in whole blood,[2]; [8],0.131 ± 0.016 Abs. 450 nm
same,Release amount of MPO in whole blood,[2]; [9],0.207 ± 0.004 Abs. 450 nm
same,Release amount of MPO in whole blood,[2]; [10],0.198 ± 0.003 Abs. 450 nm
same,Release amount of MPO in whole blood,[2]; [11],0.259 ± 0.007 Abs. 450 nm
same,Release amount of MPO in whole blood,[2]; [12],0.240 ± 0.006 Abs. 450 nm
same,Release amount of MPO in whole blood,[2]; [13],0.245 ± 0.015 Abs. 450 nm
same,Release amount of MPO in whole blood,[2]; [14],0.239 ± 0.002 Abs. 450 nm
same,Release amount of MPO in whole blood,[2]; [15],0.243 ± 0.005 Abs. 450 nm
